Patent US20230131427A1, “FUNGICIDAL COMPOSITIONS” (SYNGENTA CROP PROTECTION AG, priority 2020, published 2023)
Like-named read-outs stand apart in the source and are kept apart here.

Experiments:
[1] = system: Glomerella lagenarium syn. Colletotrichum lagenarium; test: Example B1: mixtures, preventative activity against Glomerella lagenarium syn. Colletotrichum lagenarium, liquid culture; assay type: cell-based; conditions: for inhibition at 0.1 ppm / inhibition at 0.3 ppm: Colletotrichum orbiculare, read-out: Activity (%) B
Excerpt: (§1) This occurs whenever the action of an active ingredient combination is greater than the sum of the actions of the individual components. The action to be expected E for a given active ingredient combination obeys the so-called COLBY formula and can be calculated as follows (COLBY, S. R. “Calculating synergistic and antagonistic responses of herbicide combination”. Weeds, Vol. 15, pages 20-22; 1967):
(§2) If the action actually observed (O) is greater than the expected action (E), then the action of the combination is super-additive, i.e. there is a synergistic effect. In mathematical terms, synergism corresponds to a positive value for the difference of (O-E). In the case of purely complementary addition of activities (expected activity), said difference (O-E) is zero. A negative value of said difference (O-E) signals a loss of activity compared to the expected activity.
(§3) Conidia of the fungus from cryogenic storage were directly mixed into nutrient broth (PDB potato dextrose broth). A DMSO solution of the test compounds was placed into a microtiter plate (96-well format) and the nutrient broth containing the fungal spores was added to it.
(§4) Fungicidal activity was evaluated on a 100-0 scale (100=no disease growth; 0=well completely covered by mycelium).

[2] = system: Septoria tritici; test: Example B3: mixtures, preventative activity against Septoria tritici (leaf blotch), liquid culture; assay type: cell-based; conditions: for inhibition at 0.1 ppm / inhibition at 0.3 ppm: Zymoseptoria tritici, read-out: Activity (%) B
Excerpt: as §1, §2, §3, §4

[3] = system: Phakopsora pachyrhizi; test: Example B5: preventative activity against Phakopsora pachyrhizi (soybean rust), whole soybean plants sprayed, leaf disks inoculated; assay type: in vivo
Experimental: Whole soybean plants are treated with the recited active ingredients 4 weeks after planting. 1 day after spraying leaf disks are cut from the first trifoliate leaf. Five repetitions at each rate are conducted. The leaf disks are inoculated with Phakopsora pachyrhizi (Asian soybean rust) one day after treatment.
Evaluation of the leaf disks is conducted 11 to 14 days after inoculation and the activity is derived from the relation of the treated vs untreated, infested check (100=no disease, no damage to the leaf, 0=high infestation, leaf damaged heavily). The rates of the active ingredients used are given in the tables as g active ingredient (a.i.)/ha.

[4] = system: Mycosphaerella arachidis syn. Cercospora arachidicola; test: Example B4: mixtures, preventative activity against Mycosphaerella arachidis syn. Cercospora arachidicola (brown leaf spot of peanut), liquid culture; assay type: cell-based; conditions: component B alone
Excerpt: as §1, §2, §3
Cercospora arachidicola (Brown leaf spot of peanut). Fungicidal activity was evaluated on a 100-0 scale (100=no disease growth; 0=well completely covered by mycelium).

[5] = system: Septoria glycines; test: Example B2: mixtures, preventative activity against Septoria glycines (brown spot), liquid culture; assay type: cell-based; conditions: component B alone; for inhibition at 0.1 ppm / inhibition at 0.3 ppm: Septoria glycines; for inhibition at 0.1 ppm: read-out: Activity (%) B
Excerpt: as §1, §2
as §3, with “fungus harvested” for “fungus”, “a fresh culture grown on artificial media,” for “cryogenic storage”
as §4

[6] = component B alone, 0.1 ppm, 100-0 scale
[7] = component B alone, 0.3 ppm, 100-0 scale
[8] = active ingredient alone, 2.25 g/ha
[9] = active ingredient alone, 4.5 g/ha
[10] = active ingredient alone, 9 g/ha
[11] = Phakopsora pachyrhizi, foliar, read-out: Observed Activity (% of untreated) against Phakopsora pachyrhizi
[12] = Mycosphaerella arachidis, 0.1 ppm
[13] = Phakopsora pachyrhizi, foliar, applied alone, 22.5 g/ha, read-out: Observed Activity (% of untreated) against Phakopsora pachyrhizi
[14] = Phakopsora pachyrhizi, foliar, applied alone, 45 g/ha, read-out: Observed Activity (% of untreated) against Phakopsora pachyrhizi

In the case of `Cn1cc(C(=O)Nc2cccc3c2[C@@H]2CC[C@H]3C2=C(Cl)Cl)c(C(F)F)n1` (racemic) [benzovindiflupyr, reference compound], the “Activity (%) B” value ([1]; component B alone, 0.1 ppm) is reported as 50%, the “Activity (%) B” value ([1]; component B alone, 0.3 ppm) is reported as 100% and the “Activity (%) B” value [2, 6] is reported as 50%. The “Activity (%) B” value [2, 7] was 70%, the “Observed Activity (%) (% of untreated)” value [3, 8] was 34% and the “Observed Activity (%) (% of untreated)” value [3, 9] was 80%. The “Observed Activity (%) (% of untreated)” value [3, 10] was 99%, the “Observed Activity (% of untreated) against Phakopsora pachyrhizi” value (from here on “Observed Activity (% of untreated)”) ([3]; applied alone, 2.25 g/ha) was 34% and the “Observed Activity (% of untreated)” value ([3]; applied alone, 4.5 g/ha) was 80%. The “Observed Activity (% of untreated)” value ([3]; applied alone, 9 g/ha) was 99%.

For `N#Cc1c[nH]cc1-c1cccc2c1OC(F)(F)O2` [fludioxonil, reference compound], the inhibition at 0.1 ppm [1] was 0%, the inhibition at 0.3 ppm [1] was 0% and the inhibition at 0.1 ppm ([2]; 72 h) was 0%. The inhibition at 0.3 ppm ([2]; 72 h) was 20%, the inhibition at 0.1 ppm [2] was 0% and the inhibition at 0.3 ppm [2] was 20%. For the same molecule, the inhibition at 450 g/ha [3, 11] was 0% and the inhibition at 900 g/ha [3, 11] was 1%.

For `O=C(NCCc1ncc(C(F)(F)F)cc1Cl)c1ccccc1C(F)(F)F` [fluopyram], the inhibition at 0.1 ppm ([2]; 72 h, component B alone, 0.1 ppm, 72 hrs, 100=no disease growth) was 0%, the inhibition at 0.3 ppm ([2]; 72 h, component B alone, 0.3 ppm, 72 hrs) was 50% and the inhibition at 0.1 ppm [4, 12] was 0%. For the same molecule, the inhibition at 0.3 ppm ([4]; Mycosphaerella arachidis, 0.3 ppm) was 90%.

`O=C1c2ccccc2C(=O)N1SC(Cl)(Cl)Cl` [folpet] showed an inhibition at 0.1 ppm [2, 6] of 0%, an inhibition at 0.3 ppm [2, 7] of 0% and an inhibition at 0.1 ppm [4, 12] of 20%.

For `Cc1nc2c(F)c(F)ccc2cc1Oc1cccc(F)c1C(C)(C)O` [ipflufenoquin], the “Activity (%) B” value ([1]; component B alone, 0.1 ppm) was 20%, the “Activity (%) B” value ([1]; component B alone, 0.3 ppm) was 100% and the “Activity (%) B” value ([5]; 0.1 ppm, 100-0 scale) was 0%. The “Activity (%) B” value ([5]; 0.3 ppm, 100-0 scale) was 0%, the “Activity (%) B” value [2, 6] was 0% and the “Activity (%) B” value [2, 7] was 20%.

`CC(C)c1ccc(Cl)cc1CN(C(=O)c1c(C(F)F)nn(C)c1F)C1CC1` [isoflucypram] was tested, and the “Activity (%) B” value ([4]; 0.1 ppm) was 90% and the “Activity (%) B” value ([4]; 0.3 ppm) was 100%.

In the case of `Cc1cccc(-n2nnn(C)c2=O)c1COc1ccn(-c2ccc(Cl)cc2)n1` [metyltetraprole, reference compound], the “Activity (%) B” value ([1]; component B alone, 0.1 ppm) is reported as 90%, the “Activity (%) B” value ([1]; component B alone, 0.3 ppm) is reported as 90% and the “Observed Activity (%) (% of untreated)” value [3, 8] is reported as 1%. For the same molecule, the “Observed Activity (%) (% of untreated)” value [3, 9] was 0%, the “Observed Activity (%) (% of untreated)” value [3, 10] was 7% and the “Observed Activity (%) (% of untreated)” value ([3]; active ingredient alone, 18 g/ha) was 67%. The “Observed Activity (% of untreated)” value ([3]; applied alone, 2.25 g/ha) was 1%, the “Observed Activity (% of untreated)” value ([3]; applied alone, 4.5 g/ha) was 0% and the “Observed Activity (% of untreated)” value ([3]; applied alone, 9 g/ha) was 7%. The “Observed Activity (% of untreated)” value ([3]; applied alone, 18 g/ha) was 67%.

For `OC(Cc1ccccc1Cl)(Cn1nc[nH]c1=S)C1(Cl)CC1` (stereo not drawn) [proth ioconazole, prothioconazole, reference compound], the inhibition at 0.3 ppm ([1]; component B alone, 0.3 ppm) was 50%, the “Activity (%) B” value ([1]; component B alone, 0.1 ppm) was 20% and the inhibition at 0.1 ppm ([5]; 0.1 ppm, 100-0 scale) was 90%. For the same molecule, the inhibition at 0.3 ppm ([5]; 0.3 ppm, 100-0 scale) was 90%, the “Activity (%) B” value ([5]; 0.3 ppm) was 50% and the inhibition at 22.5 g/ha ([3]; Phakopsora pachyrhizi, foliar, active ingredient alone, 22.5 g/ha, read-out: Observed Activity (%) (% of untreated)) was 47%. For the same molecule, the inhibition at 45 g/ha ([3]; Phakopsora pachyrhizi, foliar, active ingredient alone, 45 g/ha, read-out: Observed Activity (%) (% of untreated)) was 80%, the inhibition at 90 g/ha ([3]; Phakopsora pachyrhizi, foliar, active ingredient alone, read-out: Observed Activity (%) (% of untreated)) was 94% and the inhibition at 22.5 g/ha [3, 13] was 47%. It also gave an inhibition at 45 g/ha [3, 14] of 80% and an inhibition at 90 g/ha ([3]; Phakopsora pachyrhizi, foliar, applied alone, read-out: Observed Activity (% of untreated) against Phakopsora pachyrhizi) of 94%.

In the case of `CON(C(=O)c1cn(C)nc1C(F)F)C(C)Cc1c(Cl)cc(Cl)cc1Cl` (stereo not drawn) [pydiflumetofen, reference compound], the “Activity (%) B” value ([1]; component B alone, 0.1 ppm) is reported as 0%, the “Activity (%) B” value ([1]; component B alone, 0.3 ppm) is reported as 0% and the “Observed Activity (%) (% of untreated) against Phakopsora pachyrhizi” value ([3]; applied alone, 22.5 g/ha) is reported as 28%. The “Observed Activity (%) (% of untreated) against Phakopsora pachyrhizi” value ([3]; applied alone, 45 g/ha) was 74%.

`CON=C(C(=O)OC)c1ccccc1CON=C(C)c1cccc(C(F)(F)F)c1` [trifloxystrobin, reference compound] showed an inhibition at 0.1 ppm ([1]; component B alone, 0.1 ppm) of 90%, an inhibition at 0.3 ppm ([1]; component B alone, 0.3 ppm) of 90% and an inhibition at 0.1 ppm ([5]; 0.1 ppm, 100-0 scale) of 90%. It also gave an inhibition at 0.3 ppm ([5]; 0.3 ppm, 100-0 scale) of 100%, an inhibition at 2.25 g/ha ([3]; Phakopsora pachyrhizi, foliar, applied alone, 2.25 g/ha, read-out: Observed Activity (% of untreated) against Phakopsora pachyrhizi) of 0% and an inhibition at 4.5 g/ha ([3]; Phakopsora pachyrhizi, foliar, applied alone, 4.5 g/ha, read-out: Observed Activity (% of untreated) against Phakopsora pachyrhizi) of 3%. It also gave an inhibition at 9 g/ha ([3]; Phakopsora pachyrhizi, foliar, applied alone, 9 g/ha, read-out: Observed Activity (% of untreated) against Phakopsora pachyrhizi) of 0% and an inhibition at 18 g/ha ([3]; Phakopsora pachyrhizi, foliar, applied alone, 18 g/ha, read-out: Observed Activity (% of untreated) against Phakopsora pachyrhizi) of 19%.

With `CCOC(=O)C1CC(=O)C(=C(O)C2CC2)C(=O)C1` (stereo not drawn) [trinexapac-ethyl, reference compound] the inhibition at 0.1 ppm ([1]; component B alone, 0.1 ppm) was 0%, the inhibition at 0.3 ppm ([1]; component B alone, 0.3 ppm) was 0% and the inhibition at 22.5 g/ha [3, 13] was 0%. For the same molecule, the inhibition at 22.5 g/ha ([3]; Phakopsora pachyrhizi, foliar, applied alone, 22.5 g/ha, read-out: Observed Activity (%) (% of untreated) against Phakopsora pachyrhizi) was 0%, the inhibition at 45 g/ha [3, 14] was 0% and the inhibition at 45 g/ha ([3]; Phakopsora pachyrhizi, foliar, applied alone, 45 g/ha, read-out: Observed Activity (%) (% of untreated) against Phakopsora pachyrhizi) was 0%.
